{"source": "the kinase profiling compilation of Christmann-Franck et al. (2016)", "assay_in_all_cases": "radiometric filter-binding kinase assay", "key": {"BRSK2 (human)": {"molecular_target": "BRSK2 (human) (UniProt Q8IWQ3)", "conditions": "compound 1.0 µM"}, "STK3 (human)": {"molecular_target": "STK3 (human) (UniProt Q13188)", "sequence (Q13188 whole entry, looked up)": "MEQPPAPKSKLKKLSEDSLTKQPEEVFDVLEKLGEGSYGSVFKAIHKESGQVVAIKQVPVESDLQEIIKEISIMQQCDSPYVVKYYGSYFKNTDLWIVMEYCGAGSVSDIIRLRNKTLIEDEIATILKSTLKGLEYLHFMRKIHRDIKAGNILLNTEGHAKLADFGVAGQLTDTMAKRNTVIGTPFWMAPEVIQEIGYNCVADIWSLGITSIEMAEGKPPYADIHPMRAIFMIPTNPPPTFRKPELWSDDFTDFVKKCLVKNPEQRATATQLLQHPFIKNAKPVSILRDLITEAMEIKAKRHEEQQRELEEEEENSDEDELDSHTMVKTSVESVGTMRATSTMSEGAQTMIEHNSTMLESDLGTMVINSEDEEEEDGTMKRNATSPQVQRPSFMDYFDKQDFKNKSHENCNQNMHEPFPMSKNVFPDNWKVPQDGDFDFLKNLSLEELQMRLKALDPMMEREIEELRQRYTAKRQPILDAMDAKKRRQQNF"}, "[1]": {"test_system": "RPS6KB1 (human), P23443 [T412E]"}, "HIPK2 (human)": {"molecular_target": "HIPK2 (human) (UniProt Q9H2X6)"}, "[2]": {"test_system": "AKT1 (human), P31749 [S473D]", "sequence (P31749 whole entry S473D, looked up)": "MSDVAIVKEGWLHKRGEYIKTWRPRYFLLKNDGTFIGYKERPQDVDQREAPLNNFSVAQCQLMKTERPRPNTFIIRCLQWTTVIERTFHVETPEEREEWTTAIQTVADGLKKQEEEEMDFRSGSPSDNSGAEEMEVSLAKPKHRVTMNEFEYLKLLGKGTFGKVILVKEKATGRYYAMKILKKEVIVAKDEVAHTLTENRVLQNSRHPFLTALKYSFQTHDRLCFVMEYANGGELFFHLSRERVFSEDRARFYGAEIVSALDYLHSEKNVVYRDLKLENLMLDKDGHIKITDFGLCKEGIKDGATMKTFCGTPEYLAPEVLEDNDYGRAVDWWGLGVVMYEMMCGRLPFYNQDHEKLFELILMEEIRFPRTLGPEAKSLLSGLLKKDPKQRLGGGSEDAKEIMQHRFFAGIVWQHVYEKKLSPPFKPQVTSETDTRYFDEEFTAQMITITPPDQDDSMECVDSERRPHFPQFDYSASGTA"}, "MAP3K1 (human)": {"molecular_target": "MAP3K1 (human) (UniProt Q13233)"}, "PIM1 (human)": {"molecular_target": "PIM1 (human) (UniProt P11309)"}, "EPHA2 (human)": {"molecular_target": "EPHA2 (human) (UniProt P29317)", "sequence (P29317 whole entry, looked up)": "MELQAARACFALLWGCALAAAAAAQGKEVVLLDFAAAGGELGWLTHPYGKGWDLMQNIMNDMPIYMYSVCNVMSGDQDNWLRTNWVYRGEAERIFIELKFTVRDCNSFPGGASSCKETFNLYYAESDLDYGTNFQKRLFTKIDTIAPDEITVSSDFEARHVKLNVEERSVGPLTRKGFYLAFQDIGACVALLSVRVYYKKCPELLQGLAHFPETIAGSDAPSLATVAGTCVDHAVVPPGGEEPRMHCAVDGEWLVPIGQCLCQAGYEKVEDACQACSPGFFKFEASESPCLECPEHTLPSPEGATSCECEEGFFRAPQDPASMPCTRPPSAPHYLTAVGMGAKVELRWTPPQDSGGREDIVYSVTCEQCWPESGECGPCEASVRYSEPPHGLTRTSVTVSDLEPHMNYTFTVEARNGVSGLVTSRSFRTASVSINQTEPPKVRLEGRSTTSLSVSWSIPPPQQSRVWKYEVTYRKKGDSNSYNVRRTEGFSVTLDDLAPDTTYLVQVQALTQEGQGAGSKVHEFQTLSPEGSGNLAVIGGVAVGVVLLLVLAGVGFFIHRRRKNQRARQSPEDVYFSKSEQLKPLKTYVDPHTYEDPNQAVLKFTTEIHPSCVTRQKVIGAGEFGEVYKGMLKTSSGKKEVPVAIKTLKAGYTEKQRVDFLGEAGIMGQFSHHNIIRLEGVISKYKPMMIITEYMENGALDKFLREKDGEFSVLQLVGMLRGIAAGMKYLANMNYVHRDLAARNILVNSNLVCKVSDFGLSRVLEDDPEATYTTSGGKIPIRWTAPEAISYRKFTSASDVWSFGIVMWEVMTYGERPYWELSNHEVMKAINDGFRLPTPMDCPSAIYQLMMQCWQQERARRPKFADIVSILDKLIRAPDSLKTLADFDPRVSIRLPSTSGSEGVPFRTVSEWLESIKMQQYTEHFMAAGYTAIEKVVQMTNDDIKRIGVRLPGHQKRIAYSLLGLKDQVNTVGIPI"}, "CaMK1 (human)": {"molecular_target": "CaMK1 (human) (UniProt Q14012)", "sequence (Q14012 whole entry, looked up)": "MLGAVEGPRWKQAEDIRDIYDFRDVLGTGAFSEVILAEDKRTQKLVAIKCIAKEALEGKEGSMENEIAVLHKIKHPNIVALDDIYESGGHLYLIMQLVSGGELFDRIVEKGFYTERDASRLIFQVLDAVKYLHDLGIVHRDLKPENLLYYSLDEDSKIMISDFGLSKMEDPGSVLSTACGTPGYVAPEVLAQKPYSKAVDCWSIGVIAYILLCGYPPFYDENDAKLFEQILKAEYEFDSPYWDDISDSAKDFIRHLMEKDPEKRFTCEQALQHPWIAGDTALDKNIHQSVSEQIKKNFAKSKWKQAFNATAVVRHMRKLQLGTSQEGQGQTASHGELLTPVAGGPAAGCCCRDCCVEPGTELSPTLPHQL"}, "JAK2 JH1 JH2 (human)": {"molecular_target": "JAK2 JH1 JH2 (human) (UniProt O60674)"}, "BRSK1 (human)": {"molecular_target": "BRSK1 (human) (UniProt Q8TDC3)"}, "MAP2K1 (human)": {"molecular_target": "MAP2K1 (human) (UniProt Q02750)"}, "AURKA (human)": {"molecular_target": "AURKA (human) (UniProt O14965)", "sequence (O14965 whole entry, looked up)": "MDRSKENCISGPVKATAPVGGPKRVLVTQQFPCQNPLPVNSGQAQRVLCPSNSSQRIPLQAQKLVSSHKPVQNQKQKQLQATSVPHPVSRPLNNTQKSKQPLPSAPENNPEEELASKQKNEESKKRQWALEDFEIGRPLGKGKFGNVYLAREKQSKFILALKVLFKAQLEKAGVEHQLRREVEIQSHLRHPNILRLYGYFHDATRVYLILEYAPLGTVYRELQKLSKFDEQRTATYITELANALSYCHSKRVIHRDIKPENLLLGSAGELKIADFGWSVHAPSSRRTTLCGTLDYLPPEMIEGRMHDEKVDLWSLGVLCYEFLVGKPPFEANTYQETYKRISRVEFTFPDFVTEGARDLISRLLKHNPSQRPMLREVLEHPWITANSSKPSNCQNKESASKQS"}, "FLT1 (human)": {"molecular_target": "FLT1 (human) (UniProt P17948)", "sequence (P17948 whole entry, looked up)": "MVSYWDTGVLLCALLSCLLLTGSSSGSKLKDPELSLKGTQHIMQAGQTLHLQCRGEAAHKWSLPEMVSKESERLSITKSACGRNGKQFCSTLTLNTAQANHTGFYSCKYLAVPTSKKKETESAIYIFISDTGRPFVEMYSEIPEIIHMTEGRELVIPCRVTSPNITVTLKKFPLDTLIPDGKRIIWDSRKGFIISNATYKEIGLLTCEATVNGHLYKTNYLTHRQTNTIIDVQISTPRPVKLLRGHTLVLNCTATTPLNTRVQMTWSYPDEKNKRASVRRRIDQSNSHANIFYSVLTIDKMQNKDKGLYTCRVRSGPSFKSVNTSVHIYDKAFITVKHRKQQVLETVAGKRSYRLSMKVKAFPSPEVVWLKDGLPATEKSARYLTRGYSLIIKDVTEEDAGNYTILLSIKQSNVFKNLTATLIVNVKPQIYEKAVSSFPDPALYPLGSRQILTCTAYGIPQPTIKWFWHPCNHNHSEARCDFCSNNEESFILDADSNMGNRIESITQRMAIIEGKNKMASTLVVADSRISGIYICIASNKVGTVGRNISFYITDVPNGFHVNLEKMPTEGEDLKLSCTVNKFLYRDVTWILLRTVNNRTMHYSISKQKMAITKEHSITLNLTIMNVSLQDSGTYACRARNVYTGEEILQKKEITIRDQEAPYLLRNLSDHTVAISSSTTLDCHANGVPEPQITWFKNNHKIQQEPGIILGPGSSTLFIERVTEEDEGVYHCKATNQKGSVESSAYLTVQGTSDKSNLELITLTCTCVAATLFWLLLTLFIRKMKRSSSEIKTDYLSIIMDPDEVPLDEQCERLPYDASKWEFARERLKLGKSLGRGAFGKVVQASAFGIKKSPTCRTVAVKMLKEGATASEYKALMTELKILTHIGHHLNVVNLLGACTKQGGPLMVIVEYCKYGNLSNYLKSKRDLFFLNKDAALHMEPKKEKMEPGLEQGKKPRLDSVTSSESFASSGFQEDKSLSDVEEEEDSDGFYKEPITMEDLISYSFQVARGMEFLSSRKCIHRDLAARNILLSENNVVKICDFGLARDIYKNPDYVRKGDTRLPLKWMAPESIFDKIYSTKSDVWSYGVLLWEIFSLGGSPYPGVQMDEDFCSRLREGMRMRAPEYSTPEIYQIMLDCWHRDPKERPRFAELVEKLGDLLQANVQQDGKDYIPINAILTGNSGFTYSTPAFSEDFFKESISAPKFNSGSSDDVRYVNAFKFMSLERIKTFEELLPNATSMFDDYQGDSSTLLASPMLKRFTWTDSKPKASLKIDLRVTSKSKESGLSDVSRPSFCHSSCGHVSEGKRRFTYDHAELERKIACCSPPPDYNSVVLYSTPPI"}, "MAPK9 (human)": {"molecular_target": "MAPK9 (human) (UniProt P45984)", "sequence (P45984 whole entry, looked up)": "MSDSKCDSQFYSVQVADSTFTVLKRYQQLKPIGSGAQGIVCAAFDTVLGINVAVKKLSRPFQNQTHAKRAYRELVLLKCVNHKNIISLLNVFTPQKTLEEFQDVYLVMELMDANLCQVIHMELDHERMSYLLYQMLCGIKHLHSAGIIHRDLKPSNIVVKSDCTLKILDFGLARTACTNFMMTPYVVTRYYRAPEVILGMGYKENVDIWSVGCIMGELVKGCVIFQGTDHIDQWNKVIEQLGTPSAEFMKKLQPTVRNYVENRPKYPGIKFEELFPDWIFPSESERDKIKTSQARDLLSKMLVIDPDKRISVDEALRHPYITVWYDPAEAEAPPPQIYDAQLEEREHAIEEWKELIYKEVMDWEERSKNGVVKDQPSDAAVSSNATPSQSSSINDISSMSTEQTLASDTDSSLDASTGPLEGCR"}, "HIPK1 (human)": {"molecular_target": "HIPK1 (human) (UniProt Q86Z02)"}, "MAPK11 (human)": {"molecular_target": "MAPK11 (human) (UniProt Q15759)", "sequence (Q15759 whole entry, looked up)": "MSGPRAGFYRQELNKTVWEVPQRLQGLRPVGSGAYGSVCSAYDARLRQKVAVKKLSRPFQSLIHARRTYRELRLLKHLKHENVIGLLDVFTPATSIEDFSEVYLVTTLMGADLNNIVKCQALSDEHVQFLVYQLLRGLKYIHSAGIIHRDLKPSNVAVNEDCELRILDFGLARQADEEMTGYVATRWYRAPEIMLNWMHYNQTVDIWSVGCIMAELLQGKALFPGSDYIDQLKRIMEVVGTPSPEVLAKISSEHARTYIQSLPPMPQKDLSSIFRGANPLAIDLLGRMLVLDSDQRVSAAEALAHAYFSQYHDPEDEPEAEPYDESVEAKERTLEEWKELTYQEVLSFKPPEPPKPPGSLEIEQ"}, "MAP3K5 (human)": {"molecular_target": "MAP3K5 (human) (UniProt Q99683)"}}}
{"smiles": "COc1cc(O)c2c(c1)[C@H]1OC1C[C@H](O)[C@H](O)C(=O)/C=C\\C[C@H](C)OC2=O", "note": "(stereo partly specified)", "values": [{"measurement": "residual activity", "setting": "BRSK2 (human)", "value": 96, "unit": "%"}, {"measurement": "residual activity", "setting": "STK3 (human); compound 0.01 µM", "value": 97, "unit": "%"}, {"measurement": "residual activity", "setting": "STK3 (human); compound 0.1 µM", "value": 89, "unit": "%"}, {"measurement": "residual activity", "setting": "STK3 (human); compound 1.0 µM", "value": 102, "unit": "%"}, {"measurement": "residual activity", "setting": "[1]; compound 0.01 µM", "value": 87, "unit": "%"}, {"measurement": "residual activity", "setting": "[1]; compound 0.1 µM", "value": 92, "unit": "%"}, {"measurement": "residual activity", "setting": "[1]; compound 1.0 µM", "value": 106, "unit": "%"}, {"measurement": "residual activity", "setting": "HIPK2 (human); compound 0.01 µM", "value": 96, "unit": "%"}, {"measurement": "residual activity", "setting": "HIPK2 (human); compound 0.1 µM", "value": 86, "unit": "%"}, {"measurement": "residual activity", "setting": "HIPK2 (human); compound 1.0 µM", "value": 72, "unit": "%"}, {"measurement": "residual activity", "setting": "[2]; compound 0.01 µM", "value": 109, "unit": "%"}, {"measurement": "residual activity", "setting": "[2]; compound 0.1 µM", "value": 124, "unit": "%"}, {"measurement": "residual activity", "setting": "[2]; compound 1.0 µM", "value": 107, "unit": "%"}, {"measurement": "residual activity", "setting": "MAP3K1 (human); compound 0.01 µM", "value": 112, "unit": "%"}, {"measurement": "residual activity", "setting": "MAP3K1 (human); compound 0.1 µM", "value": 101, "unit": "%"}, {"measurement": "residual activity", "setting": "MAP3K1 (human); compound 1.0 µM", "value": 102, "unit": "%"}, {"measurement": "residual activity", "setting": "PIM1 (human); compound 0.01 µM", "value": 90, "unit": "%"}, {"measurement": "residual activity", "setting": "PIM1 (human); compound 0.1 µM", "value": 87, "unit": "%"}, {"measurement": "residual activity", "setting": "PIM1 (human); compound 1.0 µM", "value": 92, "unit": "%"}, {"measurement": "residual activity", "setting": "EPHA2 (human); compound 0.01 µM", "value": 97, "unit": "%"}, {"measurement": "residual activity", "setting": "EPHA2 (human); compound 0.1 µM", "value": 98, "unit": "%"}, {"measurement": "residual activity", "setting": "EPHA2 (human); compound 1.0 µM", "value": 56, "unit": "%"}, {"measurement": "residual activity", "setting": "CaMK1 (human); compound 0.01 µM", "value": 96, "unit": "%"}, {"measurement": "residual activity", "setting": "CaMK1 (human); compound 0.1 µM", "value": 96, "unit": "%"}, {"measurement": "residual activity", "setting": "CaMK1 (human); compound 1.0 µM", "value": 112, "unit": "%"}, {"measurement": "residual activity", "setting": "JAK2 JH1 JH2 (human); compound 0.01 µM", "value": 84, "unit": "%"}, {"measurement": "residual activity", "setting": "JAK2 JH1 JH2 (human); compound 0.1 µM", "value": 101, "unit": "%"}, {"measurement": "residual activity", "setting": "BRSK1 (human); compound 0.01 µM", "value": 90, "unit": "%"}, {"measurement": "residual activity", "setting": "BRSK1 (human); compound 0.1 µM", "value": 90, "unit": "%"}, {"measurement": "residual activity", "setting": "BRSK1 (human); compound 1.0 µM", "value": 82, "unit": "%"}, {"measurement": "residual activity", "setting": "MAP2K1 (human); compound 0.01 µM", "value": 101, "unit": "%"}, {"measurement": "residual activity", "setting": "MAP2K1 (human); compound 0.1 µM", "value": 21, "unit": "%"}, {"measurement": "residual activity", "setting": "MAP2K1 (human); compound 1.0 µM", "value": 1, "unit": "%"}, {"measurement": "residual activity", "setting": "AURKA (human); compound 0.01 µM", "value": 106, "unit": "%"}, {"measurement": "residual activity", "setting": "AURKA (human); compound 0.1 µM", "value": 103, "unit": "%"}, {"measurement": "residual activity", "setting": "AURKA (human); compound 1.0 µM", "value": 108, "unit": "%"}, {"measurement": "residual activity", "setting": "FLT1 (human); compound 0.01 µM", "value": 65, "unit": "%"}, {"measurement": "residual activity", "setting": "FLT1 (human); compound 0.1 µM", "value": 5, "unit": "%"}, {"measurement": "residual activity", "setting": "FLT1 (human); compound 1.0 µM", "value": 3, "unit": "%"}, {"measurement": "residual activity", "setting": "MAPK9 (human); compound 0.01 µM", "value": 105, "unit": "%"}, {"measurement": "residual activity", "setting": "MAPK9 (human); compound 0.1 µM", "value": 106, "unit": "%"}, {"measurement": "residual activity", "setting": "MAPK9 (human); compound 1.0 µM", "value": 99, "unit": "%"}, {"measurement": "residual activity", "setting": "HIPK1 (human); compound 0.01 µM", "value": 111, "unit": "%"}, {"measurement": "residual activity", "setting": "HIPK1 (human); compound 0.1 µM", "value": 99, "unit": "%"}, {"measurement": "residual activity", "setting": "HIPK1 (human); compound 1.0 µM", "value": 95, "unit": "%"}, {"measurement": "residual activity", "setting": "MAPK11 (human); compound 0.01 µM", "value": 88, "unit": "%"}, {"measurement": "residual activity", "setting": "MAPK11 (human); compound 0.1 µM", "value": 93, "unit": "%"}, {"measurement": "residual activity", "setting": "MAPK11 (human); compound 1.0 µM", "value": 98, "unit": "%"}, {"measurement": "residual activity", "setting": "MAP3K5 (human); compound 0.01 µM", "value": 105, "unit": "%"}, {"measurement": "residual activity", "setting": "MAP3K5 (human); compound 0.1 µM", "value": 103, "unit": "%"}, {"measurement": "residual activity", "setting": "MAP3K5 (human); compound 1.0 µM", "value": 109, "unit": "%"}]}
